Counter-ions that a name gives are not always drawn.
Test system: SD male rat
Test: Measurement of urethra internal pressure in rat under anesthesia
Type: in vivo
Details: rat under urethane anesthesia; intravenous 0.03, 0.1, 0.3 mg/kg; FIG. 2
Excerpt: A SD male rat (Crl: CD(SD), Charles River Laboratories Japan, Inc., 7-10 weeks old) was anesthetized by subcutaneous administration of 1.5 g/kg urethane at a back of a neck. After neck median incision, a jugular vein catheter for intravenous administration was inserted. A lower abdominal part was median incised, and a urethra was ligated at around pubis. A urethral catheter for measuring a urethra internal pressure, equipped with a collar at a tip and filled with a physiological saline was inserted into a urethra through an incised bladder top, and ligation-fixed at a bladder neck part. The urethral catheter was connected to a pressure transducer (manufactured by Nihon Kohden Corporation), and a urethra internal pressure was measured. […] A urethra internal pressure reduction rate (%) was calculated based on a urethra internal pressure after compound administration, wherein a value obtained by subtracting a postmortem baseline value (minimum value of urethra internal pressure for 10 minutes after administration of somnopentyl) from a urethra internal pressure value before compound administration (0 minute) was 100%.

SMILES | urethra internal pressure
O=C(C[C@H]1CC[C@H](C(=O)O)CC1)N1CCc2c(n(Cc3ccc(Cl)cc3F)c3ncccc23)C1 [Example 31(24), trans-4-{2-[9-(4-chloro-2-fluorobenzyl)-5,6,8,9-tetrahydro-7H-pyrido[4′,3′:4,5]pyrrolo[2,3-b]pyridin-7-yl]-2-oxoethyl}cyclohexanecarboxylic acid] | significantly reduced a urethra internal pressure

Same assay, conditions: rat under urethane anesthesia; intravenous 0.1, 0.3, 1.0 mg/kg; FIG. 1

SMILES | urethra internal pressure
O=C(O)CCCCC(=O)N1CCc2c(n(CCCc3ccccc3)c3ccccc23)C1 [Example 3, 6-oxo-6-[9-(3-phenylpropyl)-1,3,4,9-tetrahydro-2H-beta-carbolin-2-yl]hexanoic acid] | significantly reduced a urethra internal pressure

Biological target: human ENPP2 (Homo sapiens (Human), UniProt Q13822)
Test: Measurement of human ENPP2 inhibitory activity
Type: biochemical
Details: 1 μM test compound; 16:0-LPC substrate, 37° C., 24 hours; read-out: ENPP2 inhibition rate(%) (1 μM)
Method: 10 μL of a test compound solution (10% dimethyl sulfoxide) at each concentration and 40 μL of a 5 μg/mL human ENPP2 solution (buffer A: 100 mmol/L Tris-HCl (pH 9.0), 500 mmol/L NaCl, 5 mmol/L MgCl2, 0.05% Triton X-100) were mixed, 50 μL of a 2 mmol/L 16:0-lysophosphatidylcholine (LPC) solution (buffer A) was further added to react at 37° C. for 24 hours. Subsequently, to 10 μL of the reaction solution was added 90 μL of a measurement buffer (0.5 mmol/L aminoantipyrine, 0.3 mmol/L N-ethyl-N-(2-hydroxy-3-sulfopropyl)-3-methylaniline, 1 U/mL peroxidase, 3 U/mL choline oxidase, 100 mmol/L Tris-HCl (pH 8.5), 5 mmol/L CaCl2) to react at 37° C. for 20 minutes, and spectrophotometric determination was performed at 555 nm.
Using a standard curve, a choline production amount (enzyme activity) in each test compound was calculated, and the inhibitory activity rate of each test compound was calculated, wherein the enzyme activity in a positive control to which a test compound is not added, was a 0% inhibition rate, and the enzyme activity in a negative control to which a test compound and human ENPP2 are not added, were 100% inhibition. Further, concerning the present compounds shown in Table 3, an IC50 value was calculated from inhibitory activity rate at each concentration.

SMILES | inhibition at 1 µM
CC(C)(CCC(=O)N1CCc2c(n(Cc3ccccc3)c3ccccc23)C1)CC(=O)O [Example 15, 6-(9-benzyl-1,3,4,9-tetrahydro-2H-beta-carbolin-2-yl)-3,3-dimethyl-6-oxohexanoic acid] | 84.1%
CC(C)(CCCC(=O)N1CCc2c(n(Cc3ccccc3)c3ccccc23)C1)C(=O)O [Example 12(27), 6-(9-benzyl-1,3,4,9-tetrahydro-2H-beta-carbolin-2-yl)-2,2-dimethyl-6-oxohexanoic acid] | 91.9%
O=C(O)CCCCC(=O)N1CCc2c(n(CCOc3ccccc3)c3ncccc23)C1 [Example 9(28), 6-oxo-6-[9-(2-phenoxyethyl)-5,6,8,9-tetrahydro-7H-pyrido[4′,3′:4,5]pyrrolo[2,3-b]pyridin-7-yl]hexanoic acid] | 76.6%
O=C(CC12CCC(C(=O)O)(CC1)C2)N1CCc2c(n(Cc3cccc(F)c3)c3ncccc23)C1 [Example 31(181), 4-{2-[9-(3-fluorobenzyl)-5,6,8,9-tetrahydro-7H-pyrido[4′,3′:4,5]pyrrolo[2,3-b]pyridin-7-yl]-2-oxoethyl}bicyclo[2.2.1]heptane-1-carboxylic acid] | 98.7%
O=C(C[C@H]1CC[C@H](C(=O)O)CC1)N1CCc2c(n(Cc3ccc(Cl)cc3)c3ncccc23)C1 [Example 31(34), trans-4-{2-[9-(4-chlorobenzyl)-5,6,8,9-tetrahydro-7H-pyrido[4′,3′:4,5]pyrrolo[2,3-b]pyridin-7-yl]-2-oxoethyl}cyclohexanecarboxylic acid] | 98.6%
COc1cc(CC(=O)N2CCc3c(n(Cc4cc(F)c(F)cc4F)c4ncccc34)C2)ccc1C(=O)O [Example 51(24), 2-methoxy-4-{2-oxo-2-[9-(2,4,5-trifluorobenzyl)-5,6,8,9-tetrahydro-7H-pyrido[4′,3′:4,5]pyrrolo[2,3-b]pyridin-7-yl]ethyl}benzoic acid] | 97.5%

Same assay, conditions: 16:0-LPC substrate, 37° C., 24 hours

SMILES | IC50
O=C(C[C@H]1CC[C@H](C(=O)O)CC1)N1CCc2c(n(Cc3ccc(Cl)cc3F)c3ncccc23)C1 [Example 31(24), trans-4-{2-[9-(4-chloro-2-fluorobenzyl)-5,6,8,9-tetrahydro-7H-pyrido[4′,3′:4,5]pyrrolo[2,3-b]pyridin-7-yl]-2-oxoethyl}cyclohexanecarboxylic acid] | 5 nM
O=C(O)CCCCC(=O)N1CCc2c(n(CCCc3ccccc3)c3ccccc23)C1 [Example 3, 6-oxo-6-[9-(3-phenylpropyl)-1,3,4,9-tetrahydro-2H-beta-carbolin-2-yl]hexanoic acid] | 34 nM
CC(C)(CCCC(=O)N1CCc2c(n(Cc3ccc(Cl)s3)c3ncccc23)C1)C(=O)O [Example 12(42), 6-{9-[(5-chloro-2-thienyl)methyl]-5,6,8,9-tetrahydro-7H-pyrido[4′,3′:4,5]pyrrolo[2,3-b]pyridin-7-yl}-2,2-dimethyl-6-oxohexanoic acid] | 9.6 nM
CC(C)(CNCC(=O)N1CCc2c(n(Cc3cccc(F)c3)c3ncccc23)C1)C(=O)O [Example 20, 3-({2-[9-(3-fluorobenzyl)-5,6,8,9-tetrahydro-7H-pyrido[4′,3′:4,5]pyrrolo[2,3-b]pyridin-7-yl]-2-oxoethyl}amino)-2,2-dimethylpropanoic acid hydrochloride] | 83 nM
C[C@]1(C(=O)O)CC[C@H](CC(=O)N2CCc3c(n(Cc4ccc(F)cc4)c4ncccc34)C2)CC1 [Example 48(8), trans-4-{2-[9-(4-fluorobenzyl)-5,6,8,9-tetrahydro-7H-pyrido[4′,3′:4,5]pyrrolo[2,3-b]pyridin-7-yl]-2-oxoethyl}-1-methylcyclohexanecarboxylic acid] | 26 nM
O=C(O)CCCCC(=O)N1CCc2c(n(CCC3CCCCC3)c3ncccc23)C1 [Example 9(2), 6-[9-(2-cyclohexylethyl)-5,6,8,9-tetrahydro-7H-pyrido[4′,3′:4,5]pyrrolo[2,3-b]pyridin-7-yl]-6-oxohexanoic acid] | 16 nM
